The values below come from PMC7998731, “Pharmacokinetic Characterization of Supinoxin and Its Physiologically Based Pharmacokinetic Modeling in Rats” (Pharmaceutics, 2021).

A short description of the data set: Transport of supinoxin in Caco-2 cells (bidirectional permeability). The format is in vitro ADME. As to conditions: human, supinoxin 1 µM. As to the method: The Caco-2 intestinal epithelial cell line (ATCC® HTB-37™) purchased from American Type Culture Collection (ATCC, Manassas, VA, USA) was cultured and maintained in Dulbecco’s modified Eagle medium (DMEM) containing 10% fetal bovine serum, 100 U/mL penicillin, and 0.1 mg/mL streptomycin under humidified atmosphere of air containing 5% CO2 at 37 °C. Caco-2 cells were seeded at a density of 6 × 10^4 cells/cm^2 onto polyethylene membranes of transwell plates (Corning Costar, Cambridge, MA, USA). The medium was replaced on alternate days after seeding, and cell monolayers were used for the transport assay after approximately 21 days of culture. Trans-epithelial electrical resistance (TEER) values of the Caco-2 monolayers were measured with an EVOM epithelial tissue voltmeter (World Precision Instruments, Sarasota, FL, USA), and cells with TEER greater than 300 Ω were used for the experiments. Cell monolayers were first rinsed three times with transport buffer (Hank’s balanced salt solution supplemented with 10 mM HEPES) and preincubated for 30 min at 37 °C. To measure the bidirectional transport of the compound, a transport buffer containing 1 µM supinoxin was added to the respective donor compartments (the apical and basolateral sides for absorptive and secretory transport assays, respectively). Samples (200 µL) were collected at 30, 60, 90, and 120 min, and an identical volume of fresh buffer was replenished. The samples were then subjected to LC–MS/MS analysis and concentrations of the samples were determined. After the final sampling from both compartments, we measured the TEER of the monolayers to ensure no possible adverse effects induced by the experimental procedures and then estimated the apparent permeability coefficient of supinoxin from the compound’s time-dependent accumulation (dQ/dt) in the receiver compartments using the following equation: Papp = dQ/dt × 1/(A × C0)(1) where dQ/dt is the rate of transport, A is the surface area of the filter, and C0 is the initial concentration in the donor chamber.
(In general: Passage across Caco-2 layers is used to estimate intestinal permeability.)

Regarding `COCCc1ccc(OCC(O)CNC(C)C)cc1` (centres unmarked) [metoprolol, reference compound], under “Caco-2, Caco-2 cell monolayers, read-out: apical to basolateral apparent permeability coefficient”, the Papp A→B at 120 min, 1 µM turned out to be 15.5 ± 0.8 ×10⁻⁶ cm/s. Also, the Papp B→A at 120 min, 1 µM (Caco-2 cell monolayers, read-out: basolateral to apical apparent permeability coefficient) is 15.7 ± 0.8 ×10⁻⁶ cm/s.
